The target in series [1] is AcAChBP. The conditions noted are these: ref Hansen et al., cited from earlier work.
Series [2] has as its target T1, WT AcAChBP (Aplysia californica, UniProt Q8WSF8). Briefly: Tryptophan fluorescence-quenching assay. The series is classed as binding. On the set-up: made in house; host or cells: baculovirus/Sf9. As to the method: (§1) Measurements were recorded using a PerkinElmer LS-55 spectrophotometer with the detector sensitivity set to 750 V. Stock solutions of 10 µg ml^−1 GBP and AcAChBP were prepared, along with two strychnine stock solutions of 100 µM and 1 mM in the same buffer as used for the ITC experiments. The protein samples (2 ml) were excited at a wavelength of 280 nm, and emission was recorded between 300 and 400 nm. For GBP, aliquots of 20 µl of the 1 mM strychnine stock were used, followed by mixing. For AChBP, additions of 2 µl of the 100 µM strychnine stock were made, followed by mixing. Experiments were carried out in triplicate and the percentage change in fluorescence was calculated. Data were analyzed using Microsoft Excel and GraphPad Prism 7.

A further series has as its target AcAChBP variant I (Aplysia californica, UniProt Q8WSF8, I135S/Q74R/T53F/W164F/Y110A). As to the method: as §1
Another series deals with AcAChBP variant II (Aplysia californica, UniProt Q8WSF8, G162E/I135S/Q74R/T53F/Y110A). As to the method: as §1
Series [3] has as its target AcAChBP. The conditions noted are these: ref Brams et al., 2011; cited from earlier work.
Series [4] concerns the target recombinant homomeric GlyR-α3. The conditions noted are these: ITC, ref Huang et al., 2015; cited from earlier work.
The conditions of series [5]: ref Haynes, 2015; cited from earlier work.
Series [6] deals with T2, variant III, glycine-binding protein (GBP) (Aplysia californica, UniProt Q8WSF8, C207G/C208T/G162E/I135S/P209G/Q74R/S206K/T53F/Y110A). As to the method:
(§2) Fluorescence-based screening by differential scanning fluorimetry (DSF; see, for example, Eadsforth et al., 2012[▸]) was used to determine the melting temperature (T m) values. An Mx3005P RT PCR system (Stratagene) was used to monitor protein unfolding by the increase in fluorescence of SYPRO Orange dye (Invitrogen). Assays were carried out in 40 µl volumes with proteins at around 10 µM in 50 mM Tris–HCl, 250 mM NaCl pH 7.5 in 96-well RT PCR plates (ABgene). To investigate the influence of the chemical probe strychnine, 1 µl of strychnine dissolved in DMSO or buffer and then diluted with buffer was incubated with the protein solutions for 5 min prior to 71 cycles of 1°C temperature increments starting at 25°C. After each 1°C increase the sample was excited at 492 nm and fluorescence emission was recorded at 610 nm. The melting temperatures were plotted against a reference control sample of DMSO only. The strychnine concentration varied between […], with a requirement to limit the concentration of DMSO in the final mixture to <2.5%.

Series [7] deals with AcAChBP variant I (T53F, Q74R, Y110A, I135S, W164F) (Aplysia californica, UniProt Q8WSF8, I135S/Q74R/T53F/W164F/Y110A). The conditions noted are these: Table S1, Variant-I, biphasic melting. As to the method: as §2
In series [8] the target is AcAChBP variant II (T53F, Q74R, Y110A, I135S, G162E) (Aplysia californica, UniProt Q8WSF8, G162E/I135S/Q74R/T53F/Y110A). The conditions noted are these: Table S1, Variant-II. As to the method: as §2
Series [9] addresses T2, variant III, glycine-binding protein (GBP). As to the kind of experiment: biochemical. As to the method: as §1
For series [10], the target named is T1, WT AcAChBP. Briefly: biochemical. As to the method: (§3) The interaction of strychnine with AcAChBP and GBP was investigated using ITC. Measurements were carried out with a MicroCal PEAQ-ITC (Malvern Panalytical) at 25°C. The protein solutions (10 µM AcAChBP, 40 µM GBP) were prepared by dialysis against buffer (50 mM Tris–HCl pH 7.5, 250 mM NaCl) at 4°C overnight. Strychnine solutions (concentrations of 100 and 500 µM) were prepared in the same buffer. For the experiments, the initial injection of one 0.4 µl aliquot was followed by 17 × 2 µl injections at 3 min intervals. In each case the injection needle acted as a paddle, stirring the cell contents at 750 rev min^−1, and the reference was set at 10 µcal s^−1. Data were analyzed using the software supplied by the manufacturer to calculate K d, ΔH, −TΔS, ΔG and N, which were derived from a one-binding-site model. Control measurements, buffer into buffer, strychnine into buffer and buffer into protein solutions, were used to determine an appropriate offset adjustment. Examples of the data, averaged parameters and standard errors derived from three titrations are presented in Supplementary Fig. S1.

In series [11] the target is T2, variant III, glycine-binding protein (GBP). Briefly: biochemical. As to the method: as §3
The source holds these as a separate data set.

Series [12] has as its target recombinant homomeric GlyR-α1. The conditions noted are these: radioligand saturation assay, ref Wöhri et al., 2013; cited from earlier work.
In series [13] the target is recombinant homomeric GlyR-α3. The conditions noted are these: surface plasmon resonance, ref Huang et al., 2015; cited from earlier work. For orientation: In SPR one partner is held on a chip, and binding of the other changes the refractive index at the surface.
Series [14] concerns the target recombinant homomeric GlyR-α1. The conditions noted are these: ITC, ref Wöhri et al., 2013; cited from earlier work. For orientation: ITC needs no label: the signal is the heat of the interaction.
Series [15] deals with T2, variant III, glycine-binding protein (GBP). This is another data set of the same source.
Setting [16] is: binding to AcAChBP, stopped-flow spectrofluorimetry, 2005.

Several values for one entry are separate records, joined by “and”; a condition that tells them apart may be missing. Identical values can stand only once. Like-named read-outs stand apart in the source and are kept apart here.

T2 sequence (Q8WSF8 18-236 C207G/C208T/G162E/I135S/P209G/Q74R/S206K/T53F/Y110A limits assumed): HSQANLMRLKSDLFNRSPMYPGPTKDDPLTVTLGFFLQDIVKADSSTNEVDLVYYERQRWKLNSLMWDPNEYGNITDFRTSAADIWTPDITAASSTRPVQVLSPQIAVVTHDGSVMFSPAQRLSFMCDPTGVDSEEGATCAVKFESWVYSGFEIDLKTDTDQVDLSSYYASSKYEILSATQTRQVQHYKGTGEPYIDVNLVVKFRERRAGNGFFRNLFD
T1 sequence (Q8WSF8 entry or part of it): as the sequence (Q8WSF8 18-236 C207G/C208T/G162E/I135S/P209G/Q74R/S206K/T53F/Y110A limits assumed) above, with F36T, R57Q, A93Y, S118I, E145G, K189S, G190C, T191C, G192P counted along it
Chain of AcAChBP variant II (Q8WSF8 18-236 T53F/Q74R/Y110A/I135S/G162E limits assumed): as the sequence (Q8WSF8 18-236 C207G/C208T/G162E/I135S/P209G/Q74R/S206K/T53F/Y110A limits assumed) above, with K189S, G190C, T191C, G192P counted along it
Chain of AcAChBP variant I (Q8WSF8 18-236 T53F/Q74R/Y110A/I135S/W164F limits assumed): as the sequence (Q8WSF8 18-236 C207G/C208T/G162E/I135S/P209G/Q74R/S206K/T53F/Y110A limits assumed) above, with E145G, W147F, K189S, G190C, T191C, G192P counted along it
Chain of AcAChBP variant I (T53F, Q74R, Y110A, I135S, W164F) (Q8WSF8 18-236 T53F/Q74R/Y110A/I135S/W164F limits assumed): as the sequence (Q8WSF8 18-236 C207G/C208T/G162E/I135S/P209G/Q74R/S206K/T53F/Y110A limits assumed) above, with E145G, W147F, K189S, G190C, T191C, G192P counted along it
Chain of AcAChBP variant II (T53F, Q74R, Y110A, I135S, G162E) (Q8WSF8 18-236 T53F/Q74R/Y110A/I135S/G162E limits assumed): as the sequence (Q8WSF8 18-236 C207G/C208T/G162E/I135S/P209G/Q74R/S206K/T53F/Y110A limits assumed) above, with K189S, G190C, T191C, G192P counted along it

By Kd is commonly meant a measure of binding affinity in units of concentration. With `CN1CCC[C@H]1c1cccnc1` [nicotine], the Kd at AcAChBP [1] (setting [16]) was 0.25 µM; at WT AcAChBP [2] (binding to WT AcAChBP, tryptophan fluorescence, three titrations, read-out: Kd), 0.245 µM. Moreover, the “ligand binding (tryptophan fluorescence)” value on AcAChBP variant I and at AcAChBP variant II was “Neither variant I nor variant II appeared to be able to bind nicotine” each time.

A word on the Ki: it is a measure of affinity in units of concentration, obtained from inhibition or displacement. For the molecule `O=C1C[C@@H]2OCC=C3CN4CC[C@]56c7ccccc7N1[C@H]5[C@H]2[C@H]3C[C@H]46` [strychnine], the Ki at AcAChBP [3] was 0.038 µM. Besides, the dissociation constant Kd in series [4] is 0.052 µM; on AcAChBP [1] (AcAChBP, stopped-flow spectrofluorimetry assay, 2004) it was 0.015 µM; in series [9] (Kd, tryptophan fluorescence, GBP, n=3), 26.6 µM and 27 µM; on WT AcAChBP [10] it was 0.0741 µM; in series [11], 28.8 µM; in series [12] it was 0.052 µM. In addition, the results for the Kd (in [13]; on WT AcAChBP [2]; in series [14]) were 0.043 µM, 0.155 µM and 0.138 µM, respectively. Further, the pKa entry in series [5] was “approximately 8.3”. In addition, the “∆Tm (C) + strychnine” value is recorded as “+3 C” in series [6] (Table S1, Variant-III (GBP)); “+5 C” in series [7] (first value); “+25 C” in series [7] (second value); “+5 C” in series [8].

On to `NCC(=O)O` [glycine], for which the ΔTm result in series [6] (ligand binding to variant III (GBP), DSF) is “+2 °C”. The “association with variant III (fluorescence assay)” value in series [9] (variant III (GBP)) was “failed to show any binding”. For the same molecule, in series [11] (variant III (GBP)), the “association with variant III (ITC)” value was “failed to show any binding”. Also, the “association with variant III (biolayer interferometry)” value in series [15] was “failed to show any binding”. Further, the “ligand binding (tryptophan fluorescence)” value at AcAChBP variant I and on AcAChBP variant II was “neither did the fluorescence assay register any glycine binding” each time.

As to `CN1[C@@H]2CC[C@H]1C[C@@H](OC(=O)c1c[nH]c3ccccc13)C2` [tropisetron], the dissociation constant (Kd) is 0.48 µM at AcAChBP [1] (setting [16]) and 0.275 µM at WT AcAChBP [2].

These data come from publication PMC6830221, “Engineering a surrogate human heteromeric α/β glycine receptor orthosteric site exploiting the structural homology and stability of acetylcholine-binding protein” (IUCrJ, 2019).
